Source: the supplement of paper PMC10331698
± gives the standard deviation of the averaged measurements.

What was measured:
Assay in all cases: level (log10 ratio to DMSO vehicle control); higher = higher biomarker level / cell amount than vehicle control
[1] = compound: O=C(O)C(F)(F)OC(F)(F)C(F)(F)OC(F)(F)C(F)(F)OC(F)(F)C(F)(F)C(F)(F)C(F)(F)F [Perfluoro-3,6,9-trioxatridecanoic acid] (in DMSO); conditions: 6700 nM
Description: (§1)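 BioMAP Diversity Plus panel of 12 human primary cell co-culture systems (3C, 4H, LPS, SAg, BT, BF4T, BE3C, CASM3C, HDF3CGF, KF3CT, MyoF, Mphg). Compounds were added 1 h before stimulation and left for 24 h (MyoF 48 h; BT 72 h for soluble read-outs or 6 d for IgG). Biomarkers were read by ELISA, cytotoxicity by SRB, PBMC viability and proliferation by Alamar Blue. Each well value was divided by the mean of 8 DMSO control wells on the same plate and log10 transformed; duplicate blinded samples were tested at 4 concentrations.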

[2] = compound: OCC(F)(F)C(F)(F)C(F)(F)C(F)F [1H,1H,5H-Perfluoropentanol] (in DMSO)
Description: as §1

[3] = compound: C=C(C)C(=O)OCCC(F)(F)C(F)(F)C(F)(F)C(F)(F)C(F)(F)C(F)(F)C(F)(F)C(F)(F)F [8:2 Fluorotelomer methacrylate] (in DMSO)
Description: as §1

Perfluorononanoic acid = compound: O=C(O)C(F)(F)C(F)(F)C(F)(F)C(F)(F)C(F)(F)C(F)(F)C(F)(F)C(F)(F)F [Perfluorononanoic acid] (in DMSO)
Description: as §1

[4] = compound: CO[Si](C)(CCC(F)(F)C(F)(F)C(F)(F)C(F)(F)C(F)(F)C(F)(F)F)OC [Dimethoxymethyl((perfluorohexyl)ethyl)silane] (in DMSO)
Description: as §1

[5] = compound: NS(=O)(=O)C(F)(F)C(F)(F)C(F)(F)C(F)(F)C(F)(F)C(F)(F)C(F)(F)C(F)(F)F [Perfluorooctanesulfonamide] (in DMSO)
Description: as §1

[6] = compound: O=S(=O)(O)C(F)(F)C(F)(F)OC(F)(F)C(F)(F)F [Perfluoro(2-ethoxyethane)sulfonic acid] (in DMSO)
Description: as §1

[7] = compound: O=C(O)C(F)(OC(F)(F)C(F)(F)C(F)(F)F)C(F)(F)F [Ammonium perfluoro-2-methyl-3-oxahexanoate] (in Water)
Description: as §1

Test System | level (log10) [1] | level (log10) ([2]; 6700 nM) | level (log10) ([2]; 20000 nM) | level (log10) ([2]; 60000 nM) | level (log10) ([3]; 6700 nM) | level (log10) ([3]; 20000 nM) | level (log10) (Perfluorononanoic acid; 6700 nM) | level (log10) (Perfluorononanoic acid; 20000 nM) | level (log10) ([4]; 6700 nM) | level (log10) ([4]; 20000 nM) | level (log10) ([5]; 6700 nM) | level (log10) ([5]; 20000 nM) | level (log10) ([6]; 6700 nM) | level (log10) ([6]; 20000 nM) | level (log10) ([6]; 60000 nM) | level (log10) ([7]; 6700 nM) | level (log10) ([7]; 20000 nM) | level (log10) ([7]; 60000 nM)
MyoF:Collagen I | -0.598 ± 0.0057 | -0.003 ± 0.0057 | 0.021 ± 0.041 | 0.0305 ± 0.052 | -0.0335 ± 0.015 | -0.0125 ± 0.0035 | -0.017 ± 0.059 | -0.101 ± 0.027 | -0.0075 ± 0.0064 | 0.007 ± 0.0014 | -0.018 ± 0.014 | -0.236 ± 0.0028 | 0.016 ± 0.011 | -0.0025 ± 0.015 | 0.039 ± 0.014 | -0.0135 ± 0.061 | -0.024 ± 0.024 | -0.027 ± 0.031
MyoF:Collagen III | -0.894 ± 0.12 | -0.0005 ± 0.0092 | 0.0295 ± 0.015 | 0.037 ± 0.045 | -0.029 ± 0.017 | -0.005 ± 0.028 | -0.004 ± 0.0071 | -0.0355 ± 0.018 | 0.0175 ± 0.019 | -0.011 ± 0.011 | -0.014 ± 0.0099 | -0.242 ± 0.023 | -0.0035 ± 0.0092 | -0.005 ± 0.0071 | 0.0105 ± 0.012 | 0.0135 ± 0.0035 | 0.006 ± 0.023 | -0.035 ± 0.034
MyoF:Collagen IV | 0.412 ± 0.089 | -0.001 ± 0.0014 | -0.0005 ± 0.0064 | 0.0095 ± 0.00071 | -0.0265 ± 0.015 | -0.027 ± 0.025 | 0.0215 ± 0.022 | 0.221 ± 0.063 | 0.0085 ± 0.018 | 0.038 ± 0.0028 | 0.118 ± 0.015 | 0.28 ± 0.028 | 0.0015 ± 0.0021 | 0.004 ± 0.016 | 0.0315 ± 0.04 | -0.013 ± 0.0057 | 0.0045 ± 0.011 | 0.0105 ± 0.012
MyoF:Decorin | 0.033 ± 0.037 | 0 ± 0.089 | 0.029 ± 0.12 | 0.0455 ± 0.15 | -0.0145 ± 0.0021 | -0.004 ± 0.0057 | 0.0125 ± 0.028 | 0.0545 ± 0.0035 | -0.0005 ± 0.0021 | 0.029 ± 0.034 | 0.0265 ± 0.053 | 0.031 ± 0.037 | -0.0085 ± 0.0092 | 0.001 ± 0.013 | 0.0355 ± 0.005 | -0.048 ± 0.023 | -0.02 ± 0.0085 | -0.024 ± 0.013
MyoF:MMP-1 | 0.0205 ± 0.029 | -0.054 ± 0.028 | -0.01 ± 0.052 | 0.093 ± 0.13 | -0.015 ± 0.02 | -0.0075 ± 0.0021 | -0.025 ± 0.031 | 0.0665 ± 0.0021 | -0.001 ± 0.011 | -0.012 ± 0.017 | -0.038 ± 0.013 | 0.0955 ± 0.04 | -0.005 ± 0.014 | -0.0365 ± 0.00071 | 0.0155 ± 0.037 | -0.0025 ± 0.0064 | 0.0185 ± 0.0092 | -0.0095 ± 0.0064
MyoF:PAI-I | -0.0885 ± 0.046 | -0.0265 ± 0.0078 | -0.018 ± 0.031 | -0.0045 ± 0.0021 | 0.0005 ± 0.0078 | -0.013 ± 0.0071 | -0.01 ± 0.028 | 0.0105 ± 0.03 | 0.0075 ± 0.0092 | 0.008 ± 0.0014 | 0.0135 ± 0.019 | 0.006 ± 0.0071 | -0.0005 ± 0.00071 | -0.009 ± 0.013 | 0.0015 ± 0.011 | -0.0005 ± 0.005 | -0.0025 ± 0.0064 | -0.019 ± 0.011
MyoF:SRB | -0.0815 ± 0.0064 | -0.0025 ± 0.0078 | -0.004 ± 0.016 | 0.002 ± 0.0071 | 0.0025 ± 0.0064 | -0.0015 ± 0.005 | 0.0025 ± 0.0064 | -0.0155 ± 0.0021 | 0.0045 ± 0.0064 | 0.0005 ± 0.00071 | -0.0135 ± 0.0035 | -0.136 ± 0.0021 | -0.005 ± 0.0071 | -0.005 | -0.0015 ± 0.0064 | 0.0095 ± 0.0035 | 0.013 ± 0.013 | 0.0085 ± 0.0035
MyoF:TIMP-1 | -0.112 ± 0.0085 | 0.0015 ± 0.026 | 0.004 ± 0.054 | 0.039 ± 0.027 | 0.0115 ± 0.08 | 0.0185 ± 0.026 | 0.0025 ± 0.03 | -0.034 ± 0.033 | -0.0175 ± 0.0035 | -0.0295 ± 0.018 | -0.007 ± 0.027 | -0.098 ± 0.018 | 0.003 ± 0.0014 | 0.036 ± 0.028 | 0.0775 ± 0.025 | -0.0395 ± 0.0092 | -0.0635 ± 0.015 | -0.068 ± 0.0028
MyoF:alpha-SM Actin | -0.24 ± 0.025 | -0.04 ± 0.059 | -0.0045 ± 0.018 | 0 ± 0.017 | -0.009 ± 0.081 | 0.0025 ± 0.079 | -0.0165 ± 0.028 | -0.0645 ± 0.042 | -0.0045 ± 0.0064 | -0.018 ± 0.018 | -0.0355 ± 0.037 | -0.63 ± 0.1 | 0.006 ± 0.025 | 0.0075 ± 0.0078 | -0.017 ± 0.0028 | 0.001 ± 0.011 | 0.0005 ± 0.022 | -0.0035 ± 0.0035
MyoF:bFGF | -0.059 ± 0.03 | -0.02 ± 0.016 | 0.0115 ± 0.026 | 0.0135 ± 0.012 | -0.0105 ± 0.00071 | 0.011 ± 0.014 | -0.0025 ± 0.025 | 0.015 ± 0.014 | 0.002 ± 0.0085 | 0.0055 ± 0.011 | 0.0115 ± 0.00071 | -0.0145 ± 0.0021 | 0.003 ± 0.0014 | 0.0085 ± 0.0064 | 0.0165 ± 0.0092 | 0.017 ± 0.0099 | 0.006 ± 0.0014 | 0.0005 ± 0.0092
lMphg:CCL2/MCP-1 | 0.001 ± 0.014 | -0.0185 ± 0.00071 | 0.008 ± 0.02 | 0.0075 ± 0.012 | -0.032 | -0.012 ± 0.014 | 0.0105 ± 0.0064 | 0.0325 ± 0.03 | -0.027 ± 0.0057 | 0.001 ± 0.033 | -0.032 ± 0.016 | -0.0485 ± 0.046 | -0.01 ± 0.03 | 0.005 ± 0.028 | -0.002 ± 0.0042 | 0.0165 ± 0.005 | 0.0125 ± 0.012 | 0.038 ± 0.027
lMphg:CCL3/MIP-1alpha | -0.0245 ± 0.019 | -0.012 ± 0.024 | -0.011 ± 0.027 | 0.0095 ± 0.0078 | 0.0075 ± 0.039 | 0.028 ± 0.065 | 0.004 ± 0.0028 | 0.0175 ± 0.0021 | -0.012 ± 0.0099 | 0.0065 ± 0.023 | -0.003 ± 0.016 | 0.023 ± 0.0099 | 0.0145 ± 0.025 | 0.0015 ± 0.0064 | 0.0065 ± 0.021 | -0.0685 ± 0.035 | -0.067 ± 0.0014 | -0.0185 ± 0.054
lMphg:CD40 | -0.0205 ± 0.013 | 0.0015 ± 0.023 | -0.012 ± 0.016 | 0.007 ± 0.02 | -0.0215 ± 0.029 | -0.05 ± 0.052 | 0.002 ± 0.013 | -0.03 ± 0.03 | -0.006 ± 0.0014 | -0.012 ± 0.013 | -0.0365 ± 0.016 | -0.0925 ± 0.0092 | -0.018 ± 0.02 | -0.013 ± 0.037 | -0.0215 ± 0.025 | -0.0295 ± 0.0064 | -0.045 ± 0.0099 | -0.049 ± 0.011
lMphg:CD62E/E-Selectin | -0.025 ± 0.061 | -0.006 ± 0.017 | 0.002 ± 0.014 | 0.02 ± 0.016 | 0.0085 ± 0.015 | 0.02 ± 0.014 | 0.0125 ± 0.035 | 0.0365 ± 0.00071 | 0.019 ± 0.0099 | 0.0135 ± 0.033 | -0.118 ± 0.041 | -0.125 ± 0.0057 | 0.0175 ± 0.0092 | 0.0275 ± 0.0092 | 0.0425 ± 0.0092 | 0.013 ± 0.0071 | 0.002 ± 0.0071 | 0.0245 ± 0.013
lMphg:CD69 | -0.056 ± 0.083 | -0.039 ± 0.031 | 0.0325 ± 0.019 | 0.034 ± 0.028 | -0.041 ± 0.037 | -0.041 | -0.0165 ± 0.069 | 0.0125 ± 0.032 | -0.0205 ± 0.018 | -0.0435 ± 0.037 | -0.0435 ± 0.052 | -0.11 ± 0.037 | -0.043 ± 0.075 | 0.011 ± 0.0099 | -0.0415 ± 0.0078 | -0.0435 ± 0.011 | 0 ± 0.013 | -0.0185 ± 0.015
lMphg:CD106/VCAM-1 | -0.017 ± 0.011 | -0.0035 ± 0.021 | 0.0165 ± 0.037 | 0.0145 ± 0.018 | -0.0245 ± 0.0035 | -0.0315 ± 0.016 | 0.001 ± 0.04 | -0.005 ± 0.02 | 0.009 ± 0.021 | -0.009 ± 0.028 | 0.006 ± 0.014 | 0.0365 ± 0.0021 | -0.0225 ± 0.0064 | -0.016 ± 0.017 | -0.023 ± 0.0014 | -0.0195 ± 0.0035 | -0.013 ± 0.0028 | -0.0085 ± 0.0035
